These results are taken from patent publication US6800637B2, “Antidepressant indolealkyl derivatives of heterocycle-fused benzodioxan methylamines” (Wyeth, priority 2002, dated 2004).

One test deals with T1, serotonin transporter (Rattus norvegicus, UniProt P31652).
T1 construct: displace ^3H-paroxetine from male rat frontal cortical membranes; from tissue; host or cells: male rat frontal cortex membranes
Nature of the test: Displacement of 3H-paroxetine from male rat frontal cortical membranes (serotonin transporter affinity). It counts as binding. The following applies: read-out: 5-HT Transporter Affinity KI. On the technique in general: In a radioligand displacement assay an active substance lowers the binding of a labelled ligand.

A further test concerns the target T2, human 5-HT1A receptors (Homo sapiens, UniProt P08908).
T2 construct: expressed in transfected cells; host or cells: CHO cells
T2 sequence (P08908 1-422): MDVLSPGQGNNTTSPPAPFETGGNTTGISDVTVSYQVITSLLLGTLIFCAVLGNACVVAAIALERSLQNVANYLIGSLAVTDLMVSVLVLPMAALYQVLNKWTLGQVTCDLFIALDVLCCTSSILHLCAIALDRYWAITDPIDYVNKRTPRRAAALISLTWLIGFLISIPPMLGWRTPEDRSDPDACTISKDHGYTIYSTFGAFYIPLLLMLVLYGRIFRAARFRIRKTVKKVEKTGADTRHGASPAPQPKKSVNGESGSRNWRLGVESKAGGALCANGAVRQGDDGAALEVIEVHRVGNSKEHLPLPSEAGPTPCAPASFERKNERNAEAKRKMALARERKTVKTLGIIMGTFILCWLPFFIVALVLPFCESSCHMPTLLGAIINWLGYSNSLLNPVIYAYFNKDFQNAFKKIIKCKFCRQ
Briefly: Displacement of [3H] 8-OHDPAT from 5-HT1A receptor, CHO cells stably transfected with human 5-HT1A receptors. It counts as binding. The following applies: CHO cells with human 5-HT1A receptors, read-out: 5-HT1A Receptor Affinity KI. The text has this:
High affinity for the serotonin 5-HT1A receptor was established by testing the claimed compound's ability to displace [^3H] 8-OHDPAT (dipropylaminotetralin) from the 5-HT1A serotonin receptor following a modification of the procedure of Hall et al., J. Neurochem. 44, 1685 (1985) which utilizes CHO cells stably transfected with human 5-HT1A receptors.

Test [1] has as its target T3, cloned human 5HT1A receptors (Homo sapiens, UniProt P08908).
T3 construct: expressed in transfected cells
T3 sequence (P08908 1-422): T2 sequence (P08908 1-422)
Briefly: 35S-GTPγS binding assay, membranes containing cloned human 5HT1A receptors. It counts as biochemical. The settings on record: for IC50: antagonist potency, reversal of the effects of the standard agonist 8-OHDPAT, read-out: 5-HT1A Function IC50. Here is the method:
Antagonist activity at 5-HT1A receptors was established by using a ^35S-GTPγS binding assay similar to that used by Lazareno and Birdsall (Br. J. Pharmacol. 109: 1120, 1993), in which the test compound's ability to affect the binding of ^35S-GTPγS to membranes containing cloned human 5HT1A receptors was determined. Agonists produce an increase in binding whereas antagonists produce no increase but rather reverse the effects of the standard agonist 8-OHDPAT. The test compound's maximum inhibitory effect is represented as the Imax, while its potency is defined by the IC50.
For orientation: Binding of GTPγS marks nucleotide exchange on a G protein.

The mark [2] stands for this setting: maximum inhibitory effect, read-out: 5-HT1A Function (Imax).

Where two headings read alike, the source gives them in different places.

T1 sequence (P31652 whole entry): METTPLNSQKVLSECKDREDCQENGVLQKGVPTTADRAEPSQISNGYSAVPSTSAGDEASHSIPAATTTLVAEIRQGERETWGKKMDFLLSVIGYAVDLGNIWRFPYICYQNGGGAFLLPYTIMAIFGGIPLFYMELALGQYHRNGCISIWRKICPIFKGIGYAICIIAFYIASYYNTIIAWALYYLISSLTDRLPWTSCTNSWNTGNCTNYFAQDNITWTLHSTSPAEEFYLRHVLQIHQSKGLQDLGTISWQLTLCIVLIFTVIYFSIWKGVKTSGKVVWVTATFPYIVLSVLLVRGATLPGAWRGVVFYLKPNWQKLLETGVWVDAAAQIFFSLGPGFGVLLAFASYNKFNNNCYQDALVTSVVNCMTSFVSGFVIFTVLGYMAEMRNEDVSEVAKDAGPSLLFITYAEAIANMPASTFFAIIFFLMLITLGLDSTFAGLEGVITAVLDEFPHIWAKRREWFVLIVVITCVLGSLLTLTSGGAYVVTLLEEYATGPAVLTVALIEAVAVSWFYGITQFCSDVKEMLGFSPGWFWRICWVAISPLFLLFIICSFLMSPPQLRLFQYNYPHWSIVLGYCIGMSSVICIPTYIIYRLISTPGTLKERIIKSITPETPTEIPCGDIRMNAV

In general, Ki refers to a dissociation constant, usually derived from enzyme kinetics or from competition with a known ligand. As usually defined, the IC50 is the concentration at which inhibition is half-maximal. With `Cc1ccc2c3c(ccc2n1)OCC(CNC(C)CCc1c[nH]c2ccc(F)cc12)O3` (single isomer, unassigned; isomer a) [Example 11 Isomer A], the Ki was determined as 1.62 nM on serotonin transporter and 1.68 nM on human 5-HT1A receptors. Further, the IC50 in test [1] was found to be 27.8 nM. In addition, the 5-HT1A Function (Imax) in test [1] (maximum inhibitory effect) came out at 78.3%.
As to `Cc1ccc2c3c(ccc2n1)OCC(CNC(C)CCc1c[nH]c2ccc(F)cc12)O3` (single isomer, unassigned; isomer b) [Example 11 Isomer B], the Ki is 0.43 nM on serotonin transporter and 4.65 nM on human 5-HT1A receptors.
As for `COc1ccc2[nH]cc(CCNCC3COc4ccc5nc(C)ccc5c4O3)c2c1` (centres unmarked) [Example 1], the values for the inhibitory constant (Ki) at serotonin transporter and on human 5-HT1A receptors were 31 nM and 2.03 nM, respectively. Besides, in test [1], the IC50 came out at 88.6 nM. The Emax in test [1] (setting [2]) worked out at 80.3%.
Regarding `Cc1ccc2c3c(ccc2n1)OC[C@H](CNCCc1c[nH]c2ccc(Cl)cc12)O3` [Example 2], the Ki on serotonin transporter came to 34 nM; on human 5-HT1A receptors it was 19.9 nM. The IC50 in test [1] was determined as 49.4 nM. The Emax in test [1] (setting [2]) was determined as 37%.
The like results for `Cc1ccc2c3c(ccc2n1)OC[C@H](CNCCCc1c[nH]c2ccc(F)cc12)O3` [Example 3, N-[3-(5-Fluoro-1H-Indolyl-3-yl)propyl]-N-(8-methyl-2,3-dihydro-[1,4]dioxino[2,3-f]quinolin-2-ylmethyl)amine] were, in that order, 0.41 nM, 0.27 nM, 10.6 nM and 98.7%.
As for `Cc1ccc2c3c(ccc2n1)OCC(CNCCc1c[nH]c2ccc(F)cc12)O3` (centres unmarked) [Example 4, N-[2-(5-Fluoro-1H-indol-3-yl)ethyl]-N-(8-methyl-2,3-dihydro-[1,4]dioxino[2,3-f]quinolin-2-ylmethyl)amine], the Ki at serotonin transporter was found to be 47 nM; at human 5-HT1A receptors, 4.19 nM. In addition, the IC50 in test [1] stood at 909 nM. For the same compound, in test [1] (setting [2]), the Emax came to 58%.
The like results for `CCc1ccc2c3c(ccc2n1)OCC(CNCCCc1c[nH]c2ccc(F)cc12)O3` (centres unmarked) [Example 5, N-[3-(5-Fluoro-1H-Indol-3-yl)propyl]-N-(8-ethyl-2,3-dihydro-[1,4]dioxino[2,3-f]quinolin-2-ylmethyl)amine] were, in that order, 0.96 nM, 0.64 nM, 92.5 nM and 76.8%.
Take `Cc1ccc2c3c(ccc2n1)OCC(CNCCCc1c[nH]c2ccccc12)O3` (centres unmarked) [Example 6, N-[3-(1H-Indol-3-yl)propyl]-N-(8-methyl-2,3-dihydro-[1,4]dioxino[2,3-f]quinolin-2-ylmethyl)amine]: the values for the Ki at serotonin transporter and at human 5-HT1A receptors were 3.57 nM and 0.39 nM, respectively. Further, the IC50 in test [1] is 31.3 nM. Besides, the Emax in test [1] (setting [2]) came out at 86.6%.
As for `Cc1ccc2c3c(ccc2n1)OCC(CN(C)CCCc1c[nH]c2ccc(F)cc12)O3` (centres unmarked) [Example 7, N-[3-(5-Fluoro-1H-indol-3-yl)propyl]-N-methyl-N-(8-methyl-2,3-dihydro-[1,4]dioxino[2,3-f]quinolin-2-ylmethyl)amine], the inhibitory constant (Ki) on serotonin transporter was determined as 0.38 nM; on human 5-HT1A receptors, 3.43 nM. Besides, the IC50 in test [1] was 73.9 nM. The Emax in test [1] (setting [2]) is 100%.
With `Cc1ccc2c3c(ccc2n1)OCC(CNCCCc1c[nH]c2c(F)cccc12)O3` (centres unmarked) [Example 8, N-[3-(7-Fluoro-1H-indol-3-yl)propyl]-N-(8-methyl-2,3-dihydro-[1,4]dioxino[2,3-f]quinolin-2-ylmethyl)amine], the Ki at serotonin transporter is 2.07 nM; at human 5-HT1A receptors, 0.22 nM. In test [1], the 50% inhibitory concentration (IC50) came to 25.8 nM. Also, the Emax in test [1] (setting [2]) was determined as 94.1%.
As to `Cc1ccc2c3c(ccc2n1)OCC(CNCCCCc1c[nH]c2ccccc12)O3` (centres unmarked) [Example 9, N-[4-(1H-indol-3-yl)butyl]-N-(8-methyl-2,3-dihydro-[1,4]dioxino[2,3-f]quinolin-2-ylmethyl)amine], the results for the Ki on serotonin transporter and at human 5-HT1A receptors were 4.7 nM and 0.46 nM, respectively. The IC50 in test [1] was 23.7 nM. Also, in test [1] (setting [2]), the Emax worked out at 95.2%.
The like results for `Cc1ccc2c3c(ccc2n1)OCC(CNCCCCc1c[nH]c2ccc(F)cc12)O3` (centres unmarked) [Example 10, N-[4-(5-Fluoro-1H-indol-3-yl)butyl]-N-(8-methyl-2,3-dihydro-[1,4]dioxino[2,3-f]quinolin-2-ylmethyl)amine] were, in that order, 1.29 nM, 1.78 nM, 71.1 nM and 61.5%.
Take `Cc1ccc2c3c(ccc2n1)OCC(CNCCCc1cn(C)c2ccc(F)cc12)O3` (centres unmarked) [Example 12, N-[3-(5-Fluoro-1-methyl-1H-indol-3-yl)propyl]-N-(8-methyl-2,3-dihydro-[1,4]dioxino[2,3-f]quinolin-2-ylmethyl)amine]: the values for the Ki at serotonin transporter and at human 5-HT1A receptors were 13 nM and 1.55 nM, respectively. Moreover, in test [1], the IC50 came to 138 nM. Further, in test [1] (setting [2]), the Emax was 81.6%.
For `Cc1ccc2c3c(ccc2n1)OCC(CNCCCc1c[nH]c2c(F)cc(F)cc12)O3` (centres unmarked) [Example 13, N-[3-(5,7-Difluoro-1H-indol-3-yl)propyl]-N-(8-methyl-2,3-dihydro-[1,4]dioxino[2,3-f]quinolin-2-ylmethyl)amine], the Ki on serotonin transporter came out at 1.05 nM; at human 5-HT1A receptors, 0.32 nM. Further, the IC50 in test [1] stood at 64.6 nM. Moreover, in test [1] (setting [2]), the Emax was 95%.
The like results for `Fc1ccc2[nH]cc(CCCNC[C@H]3COc4ccc5ncccc5c4O3)c2c1` [Example 14, N-(2,3-Dihydro-[1,4]dioxino[2,3-f]quinolin-2-ylmthyl)-N-[3-(5-fluoro-1H-indol-3-yl)propyl]amine] were, in that order, 1 nM, 1.03 nM, 507 nM and 100%.
The like results for `CN(CCCc1c[nH]c2ccc(F)cc12)CC1COc2ccc3ncccc3c2O1` (centres unmarked) [Example 15, N-(2,3-Dihydro-[1,4]dioxino[2,3-f]quinolin-2-ylmethyl)-N-[3-(5-fluoro-1H-indol-3-yl)propyl]-N-methylamine] were, in that order, 1.6 nM, 5.16 nM, 412 nM and 100%.
The like results for `Cc1ccc2c3c(ccc2n1)OCC(CN(C)CCCc1c[nH]c2c(F)cc(F)cc12)O3` (centres unmarked) [Example 16, N-[3-(5,7-Difluoro-1H-indol-3-yl)propyl]-N-methyl-N-(8-methyl-2,3-dihydro-[1,4]dioxino[2,3-f]quinolin-2-ylmethyl)amine] were, in that order, 1.8 nM, 2.51 nM, 125 nM and 100%.
As to `Cc1ccc2c3c(ccc2n1)OC[C@H](CNCCc1coc2ccccc12)O3` [Example 17], the Ki at serotonin transporter came to 46 nM; on human 5-HT1A receptors it was 0.63 nM. Besides, the IC50 in test [1] worked out at 52 nM. In test [1] (setting [2]), the Emax was 78%.
As for `Cc1ccc2c3c(ccc2n1)OC[C@H](CNCCCc1coc2ccccc12)O3` [Example 18], the inhibitory constant (Ki) at serotonin transporter was 6.6 nM; on human 5-HT1A receptors it was 0.35 nM. In addition, the concentration for half-maximal inhibition (IC50) in test [1] amounted to 10.4 nM. Also, in test [1] (setting [2]), the Emax worked out at 59.3%.
As for `Cc1ccc2c3c(ccc2n1)OCC(CNCCCCc1coc2ccccc12)O3` (centres unmarked) [Example 28, N-[4-(1-Benzofuran-3-yl)butyl]-N-(8-methyl-2,3-dihydro-[1,4]dioxino[2,3-f]quinolin-2-ylmethyl)amine], the Ki came out at 5.5 nM on serotonin transporter and 0.28 nM at human 5-HT1A receptors.
Take `Cc1ccc2c3c(ccc2n1)OCC(CN(C)CCCCc1c[nH]c2ccc(C#N)cc12)O3` (centres unmarked) [Example 41, 3-{4-[Methyl-(8-methyl-2,3-dihydro-[1,4]dioxino[2,3-f]quinolin-2-ylmethyl)-amino]-butyl}-1H-indole-5-carbonitrile]: the Ki at serotonin transporter was 0.24 nM; at human 5-HT1A receptors, 21 nM.
Take `Cc1ccc2c3c(ccc2n1)OCC(CN(C)CCCc1cn(C)c2ccc(F)cc12)O3` (centres unmarked) [Example 42, [3-(5-Fluoro-1-methyl-1H-indol-3-yl)-propyl]-methyl-(8-methyl-2,3-dihydro-[1,4]dioxino[2,3-f]quinolin-2-ylmethyl)-amine]: the Ki was determined as 2.75 nM on serotonin transporter and 36 nM at human 5-HT1A receptors.
By EC50 is commonly meant the concentration needed to bring the measured effect to its halfway point. Consider `CCN(CCCCc1coc2ccccc12)C[C@H]1COc2ccc3nc(C)ccc3c2O1` [Example 52, N-[4-(1-Benzofuran-3-yl)butyl]-N-ethyl-N-{[(2S)-8-methyl-2,3-dihydro[1,4]dioxino[2,3-f]quinolin-2-yl]methyl}amine], for which, on human 5-HT1A receptors, the Ki was 2.08 nM. Also, the EC50 in test [1] (given as EC50, read-out: 5-HT1A Function EC50) turned out to be 526 nM. In addition, in test [1] (given as Emax, read-out: 5-HT1A Function Emax), the Emax is 97%.
